Assay results as given in US9745274B2, “Compound, organic cation transporter 3 detection agent, and organic cation transporter 3 activity inhibitor” (SHIN NIPPON BIOMEDICAL LABORATORIES, LTD., priority 2013, dated 2017).

Target: T1, human organic cation transporter 3 (hOCT3) (Homo sapiens, UniProt O75751)
T1 construct: expressed in transfected cells; host or cells: HEK293
T1 sequence (O75751 1-556): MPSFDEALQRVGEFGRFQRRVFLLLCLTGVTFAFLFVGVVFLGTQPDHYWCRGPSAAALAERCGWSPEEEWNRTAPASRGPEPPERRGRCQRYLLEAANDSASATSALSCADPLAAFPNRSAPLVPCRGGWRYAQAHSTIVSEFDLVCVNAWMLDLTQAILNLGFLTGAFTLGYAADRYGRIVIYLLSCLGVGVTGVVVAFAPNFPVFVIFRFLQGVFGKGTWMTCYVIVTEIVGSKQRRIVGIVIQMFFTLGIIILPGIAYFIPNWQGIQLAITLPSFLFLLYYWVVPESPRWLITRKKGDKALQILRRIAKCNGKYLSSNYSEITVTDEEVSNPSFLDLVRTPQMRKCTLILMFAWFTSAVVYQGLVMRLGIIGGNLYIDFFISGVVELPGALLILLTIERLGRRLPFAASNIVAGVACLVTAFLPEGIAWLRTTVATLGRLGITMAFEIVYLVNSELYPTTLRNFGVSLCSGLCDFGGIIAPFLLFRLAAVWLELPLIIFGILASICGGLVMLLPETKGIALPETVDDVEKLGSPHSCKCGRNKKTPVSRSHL
Experiment: Histamine incorporation experiment in HEK293 cells expressing hOCT3 (OCT3 inhibition activity)
Type: cell-based
Conditions: for OCT3 Inhibition Rate (%): Tables 3-1 to 3-15, in a manner similar to Example 12 (30 μM there), concentration not given in the tables; for remaining activity at 30 µM: HEK293, 1 min, [3H]histamine 100 nM, 1 minute, no inhibitor = 100%, read-out: Histamine Incorporation Rate to Control (%); for remaining activity at 30 µM / inhibition at 30 µM: Compound Concentration 30 μM; for inhibition at 30 µM: HEK293, 100% minus histamine incorporation rate
Description: In order to measure an activity that inhibits OCT3 from incorporating a substrate (OCT3 inhibition activity) for each compound, histamine incorporation experiments as described below were performed.
Histamine incorporation experiments were performed in accordance with a method disclosed in Br J Pharmacol. 2002; 136(6): 829-836. In the experiments, HEK293 cells were used. The HEK293 cell is a human embryonal renal cell strain expressing human organic cation transporter 3 (hOCT3). The HEK 293 cells were inoculated onto 24-well plates at 1.5×10^5 cells/well, and were cultivated overnight in a carbon dioxide incubator. Test substances were dissolved in 100% DMSO solution and then dissolved in HBSS-HEPES solution (buffer solution prepared by dissolving 9.7 g Hank's Balanced Salt, 1.4% sodium bicarbonate 25 mL, and 1M HEPES 25 mL in 940 mL ultra pure water, and by adjusting to pH7.4 with 1M sodium hydroxide). After removing culture media for cell culture, pretreatment was performed for 5 minutes with 1 mL HBSS-HEPES solution. Then, the test substance and [3H]histamine (final concentration 100 nM) were added to the cells and reacted for 1 minute at room temperature. After the reaction was completed, the reaction was stopped by ice-cooled HBSS-HEPES solution, extracellular fluid was aspirated by an aspirator, and then the cells were washed twice with HBSS-HEPES. After washing, the cells were dissolved in 0.5M sodium hydroxide solution. The amount of histamine in the cells was found by measuring a radioactivity in a cell lysis solution by a liquid scintillation counter. Protein content in the cells was measured by Lowry method (J Biol Chem. 1951; 193(1): 265-75) by using the cell lysis solution, and translated into histamine incorporation amount per protein content for each experiment. A histamine incorporation rate (%) in the presence of 30 μM of the test substance was calculated by regarding a histamine incorporation amount in a case of no incorporation inhibitor as 100% (control) of histamine incorporation rate. A value (%) obtained by subtracting the histamine incorporation rate from 100(%) was calculated as an OCT3 inhibition rate (%).
Note that a histamine incorporation rate (%) in the presence of 10 μM of the test substance was calculated by regarding a histamine incorporation amount in a case of no incorporation inhibitor as 100% (control) of histamine incorporation rate. A value (%) obtained by subtracting the histamine incorporation rate from 100(%) was calculated as an OCT3 inhibition rate (%). […]

Structure (SMILES)	OCT3 Inhibition Rate (%)	remaining activity at 30 µM [%]	inhibition at 30 µM [%]
CSc1nc(CSCCC(N)=NS(N)(=O)=O)cs1 [SR-2227]	13.8		
Cc1nc(CSCC/C(N)=N/S(N)(=O)=O)cs1 [SR-2228]	17.6		
NC(N)=Nc1cc(CSCCC(N)=NS(N)(=O)=O)ccn1 [SR-2229]		55.8	44.2
NC(N)=Nc1cccc(CSCCC(N)=NS(N)(=O)=O)n1 [SR-2230]		41.4	58.6
N=C(N)CCSCc1ccc([N+](=O)[O-])o1 [SR-2233]	4.7		
N=C(N)CCSCc1ccc([N+](=O)[O-])n1Cc1ccccc1 [SR-2234]	50.2		
Cc1nc(CCSCc2ccc([N+](=O)[O-])n2Cc2ccccc2)[nH]c(=O)c1CCc1ccccc1 [SR-2235]	8.7		
N=C(N)NCc1csc(N=C(N)N)n1 [SR-2236]	−1.4		
Cc1nc(CSCC/C(N)=N/S(=O)(=O)C(F)(F)F)cs1 [SR-2238]	−7.4		
Cc1nc(CSCCc2nc(=O)c(CCc3ccccc3)c(C)[nH]2)cs1 [SR-2239]	33.2		
NC(CCSCc1cscn1)=NS(N)(=O)=O [SR-3001]	−14.7		
NC(CCSCc1cscn1)=NS(=O)(=O)C(F)(F)F [SR-3002]	−0.2		
Cc1[nH]c(CCSCc2cscn2)nc(=O)c1CCc1ccccc1 [SR-3003]	40.6		

Continued, values first:

OCT3 Inhibition Rate (%)	remaining activity at 30 µM [%]	inhibition at 30 µM [%]	Structure (SMILES)
−8.1			CSc1nc(CSCCC(N)=NS(=O)(=O)C(F)(F)F)cs1 [SR-3012]
−4.0			CC(C)c1nc(CSCCC(N)=NS(=O)(=O)C(F)(F)F)cs1 [SR-3021]
47.2			NC(N)=Nc1nc(CSc2ccc(F)cc2)cs1 [SR-3123]
20.6			NC(N)=Nc1nc(COCc2ccc(F)cc2)cs1 [SR-3129]
22.3			NC(N)=Nc1nc(CCCc2ccc(F)cc2)cs1 [SR-3131]
28.6			NC(N)=Nc1nc(CNCCc2ccc(F)cc2)cs1 [SR-3136]
33.3			NC(N)=Nc1nc(CSCCc2ccc(F)cc2)cs1 [SR-3137]
−11.5			N=C(NCc1csc(N=C(N)N)n1)NS(N)(=O)=O [SR-3154]
−10.3			NC(N)=Nc1nc(CS/C(N)=N\S(N)(=O)=O)cs1 [SR-3155]
6.2			NC(N)=Nc1nc(CS/C(N)=N/S(=O)(=O)C(F)(F)F)cs1 [SR-3159]
22.2			NC(N)=Nc1ncc(CSCCC(N)=NS(=O)(=O)c2ccccc2)s1 [SR-3203]
8.7			N=C(N)CCSCc1csc(N=C2NCCN2)n1 [SR-3208]
43.0			CCCCN/C(N)=N/c1nc(CSCCC(=N)N)cs1 [SR-3209]
